{
  "source": "patent US12429487B2",
  "about": "“Neurofilament protein for guiding therapeutic intervention in amyotrophic lateral sclerosis” (Biogen MA Inc., priority 2018, dated 2025)",
  "key": {"ALS patients": {"test_system": "ALS patients", "conditions": "EMPOWER, 12 months, vs placebo", "description": "EMPOWER was a Phase 3 global randomized clinical trial (RCT) of the safety and efficacy of dexpramipexole in the treatment of ALS conducted at 81 academic medical centers enrolling 943 adults (see Cudkowicz M E et al., Lancet Neurol. 2013 November; 12(11):1059-67).\nThe subjects included in the EMPOWER study had to have a diagnosis of possible, probable, or definite ALS, have had ALS symptoms for fewer than 24 months, have an SVC value that was at least 65% of the predicted value, and no significant comorbidities.\nIn the study, the subjects were allocated in a 1:1 ratio to treatment with dexpramipexole or placebo for 12 months, […]"}, "[1]": {"test_system": "plasma neurofilament heavy chain (NFH)", "conditions": "EMPOWER, vs placebo, FIG. 2", "from_the_text": "Determination of baseline as well as longitudinal plasma neurofilament heavy chain (NFH) concentrations in the clinical trial of dexpramipexole, EMPOWER, and assessment of their relationship to clinical outcomes including survival and the rates of decline of muscle strength (assessed by hand-held dynamometry [HHD]), slow vital capacity (SVC), and ALSFRS-R).\nPlasma neurofilament heavy (NFH), measured using a NFH assay on the Ella, an automated microfluidic cartridge based immunoassay platform from Protein Simple."}, "people with ALS": {"test_system": "people with ALS", "conditions": "cited from earlier work"}, "SOD1 mRNA": {"test_system": "SOD1 mRNA", "assay": "SOD1 mRNA lowering in human neuroblastoma cell line SH-SY5Y", "format": "cell-based", "conditions": "SH-SY5Y cells"}, "SOD1^G93A mice [2]": {"test_system": "SOD1^G93A mice", "assay": "SOD1^G93A mice: weight, rotarod, survival after i.c.v. bolus", "format": "in vivo, mouse", "conditions": "300 μg bolus at 50 and 94 days of age", "experimental": "To investigate whether a SOD1-lowering ASO strategy could delay disease parameters, SOD1^G93A mice (B6.CgTg(SOD1*G93A)Gur/J) were infused Intracerebroventricular […] with bolus doses of 300 μg ASO1 at 50 and 94 days of age. Weight and performance on rotarod were tested weekly."}, "SOD1^G93A rats": {"test_system": "SOD1^G93A rats", "assay": "SOD1^G93A rats: weight loss onset and survival after intrathecal bolus", "format": "in vivo, rat", "conditions": "1000 μg intrathecal bolus, 65-day-old rats", "experimental": "SOD1^G93A rats (Taconic Biosciences, model 2148) received a 30-μl intrathecal bolus injection via polyethylene catheter placed between the L3 and L5 vertebrae of the lumber spinal cord. […] All ASOs were diluted in aCSF. All treatment groups were sexual phenotype- and litter-matched to control for drift in copy count or sexual phenotype-induced variances."}, "SOD1^G93A mice [3]": {"test_system": "SOD1^G93A mice", "assay": "SOD1^G93A mice: CMAP and neuromuscular junction innervation", "format": "in vivo, mouse", "conditions": "for compound muscle action potential (CMAP): 100 μg intraventricularly once at 5 weeks of age, next 12 weeks", "description": "To test whether SOD1 reduction by ASO could affect markers of disease, […] in compound muscle action potential (CMAP), neuromuscular junction innervation, and serum phospho-neurofilament heavy chain (pNfH) levels. In SOD1^G93Amice, CMAP declines over time, preceding the loss of motor neurons."}, "[4]": {"test_system": "serum phospho-neurofilament heavy chain (pNfH)", "assay": "SOD1^G93A mice: serum pNfH by ELLA microfluidic ELISA", "format": "in vivo, mouse", "conditions": "single dose 300 μg at 5 weeks; 8 and 10 weeks of age; vs control ASO, FIG. 4", "experimental": "pNfH increases in CSF and serum in ALS rodent models, human patients with ALS, and other neurodegenerative diseases. To look at phosphorylated neurofilament heavy chain levels in the serum, blood was collected at baseline (5 weeks) before i.e.v. injection, and then again at 8 and 10 weeks of age from the SOD1^G93A mutant mice injected once at 5 weeks of age with a single dose of 300 μg ASO1). pNfH serum levels were measured through the ELLA microfluidic ELISA platform (Protein Simple) according to the manufacturer's instructions. Briefly, a maximum of 100 μl blood was collected through facial vein puncture at the indicated time points. Serum samples were prepared by centrifugation of BD Vacutainer SST tubes (BD Diagnostics) and stored at −80° C. until used."}, "CSF SOD1 protein": {"test_system": "CSF SOD1 protein", "assay": "SAD/MAD clinical trial in SOD1 ALS patients: CSF SOD1 concentration", "format": "in vivo, human", "conditions": "40 mg, 60 mg and 100 mg cohorts; maximal at 100 mg, Day 85", "experimental": "(§1) A double-blind, randomized, placebo-controlled, clinical trial was conducted in SOD1 ALS patients. The trial involved single and multiple ascending dose (SAD/MAD) studies. In the MAD portion, participants received 5 doses of study drug over approximately 3 months. Fifty adult participants with SOD1 mutation were randomized 3:1 (ASO: placebo) per cohort to receive 20 mg, 40 mg, 60 mg, or 100 mg of placebo or a SOD-1 decreasing ASO-ASO1 (SEQ ID NO:8)."}, "SOD1 ALS patients": {"test_system": "SOD1 ALS patients", "assay": "SAD/MAD clinical trial in SOD1 ALS patients: ALSFRS-R and SVC", "format": "in vivo, human", "conditions": "vs placebo", "experimental": "as §1"}, "pNfH and NfL": {"test_system": "pNfH and NfL", "assay": "SAD/MAD clinical trial in SOD1 ALS patients: plasma and CSF pNfH and NfL", "format": "in vivo, human", "experimental": "as §1\nBaseline pNfH and NfL levels were highest in fast progressing patients and correlated with disease activity (as measured by ALSFRS-R prerandomization slope). […] In FIGS. 7A-7D, overall placebo (n=12) is the solid line at, near, or above the 1.0 baseline measure throughout the study; overall ASO1 100 mg treatment (n=10) is the solid line declining below the 1.0 baseline measure throughout the study; fast progressing placebo (n=4) is the dotted line at, near, or above the 1.0 baseline measure throughout the study; and fast progressing ASO1 100 mg treatment (n=4) is the dotted line declining below the 1.0 baseline measure throughout the study. pNfH levels were assessed using the ProteinSimple™ Simple Plex Ella immunoassay. NfL levels were assessed using the Quanterix Simoa NfL Advantage assay."}},
  "note": "“Also recorded” adds a separate entry of the source. Where two headings read alike, the source gives them in different places. Oligonucleotides are written 5' to 3', each unit as a sugar letter and its base; * is a phosphorothioate linkage, no mark a phosphodiester; rarer units and linkages stand in square brackets, end groups in braces. Plain capitals give the bases only. e = 2'-O-(2-methoxyethyl) (MOE); k = constrained ethyl (cEt); [5mC] = 5-methylcytosine; d = 2'-deoxy (DNA)",
  "data": [
    {"compound": "CCCN[C@@H]1CCc2nc(N)sc2C1", "note": "[dexpramipexole]", "values": [
      {"measurement": "ALS symptoms / clinical efficacy", "setting": "ALS patients; listed as depramipexole", "value": "did not reduce ALS symptoms"},
      {"measurement": "ALS symptoms / clinical efficacy", "setting": "ALS patients; listed as dexpramiexole", "value": "without clinical efficacy"},
      {"measurement": "longitudinal plasma NFH course", "setting": "[1]", "value": "no difference"}
    ]},
    {"compound": "CC1=NN(c2ccccc2)C(=O)C1", "note": "[edaravone]", "values": [
      {"measurement": "disease progression / decline in daily functioning", "setting": "people with ALS", "value": "reduction the decline in daily functioning"},
      {"measurement": "side effects", "setting": "people with ALS", "value": "bruising, gait disturbance, hives, swelling and shortness of breath"}
    ]},
    {"compound": "Nc1nc2ccc(OC(F)(F)F)cc2s1", "note": "[riluzole]", "values": [
      {"measurement": "disease progression / decline in daily functioning", "setting": "people with ALS", "value": "appears to slow the disease's progression in some people with ALS"},
      {"measurement": "side effects", "setting": "people with ALS", "value": "dizziness, gastrointestinal conditions and liver function changes"}
    ]},
    {"compound": "CAoGGoATACATTTCTACoAGoCT (antisense CAGGATACATTTCTACAGCT; modified backbone linkages at marked places, type not given here) [ASO1]", "values": [
      {"measurement": "SOD1 mRNA", "setting": "SOD1 mRNA", "value": "potently lowered SOD1 mRNA in a dose-dependent manner"},
      {"measurement": "maintained weight, days longer than inactive ASO", "setting": "SOD1^G93A mice [2]", "value": 26, "unit": "days"},
      {"measurement": "median survival longer compared with inactive ASO", "setting": "SOD1^G93A mice [2]", "value": 37, "unit": "days"},
      {"measurement": "extension of survival", "setting": "SOD1^G93A mice [2]; vs inactive ASO", "value": 22, "unit": "%"},
      {"measurement": "performance on rotarod", "setting": "SOD1^G93A mice [2]; vs inactive ASO", "value": "performed better on rotarod"},
      {"measurement": "maintained weight, days longer than aCSF", "setting": "SOD1^G93A rats", "value": 70, "unit": "days"},
      {"measurement": "compound muscle action potential (CMAP)", "setting": "SOD1^G93A mice [3]", "value": "maintained CMAP"},
      {"measurement": "innervation of the tibialis anterior muscles", "setting": "SOD1^G93A mice [3]; single dose 300 μg at 5 weeks of age, FIG. 3", "value": "maintained innervation"},
      {"measurement": "serum pNfH levels", "setting": "[4]", "value": "lower levels of pNfH"},
      {"measurement": "CSF SOD1 concentrations, change from baseline", "setting": "CSF SOD1 protein", "value": "Reductions from baseline"},
      {"measurement": "clinical decline", "setting": "SOD1 ALS patients; patients with fast-progressing SOD1 mutations", "value": "slowing of clinical decline"},
      {"measurement": "functional decline (ALSFRS-R)", "setting": "SOD1 ALS patients; FIG. 6A", "value": "slowing of functional decline"},
      {"measurement": "decline in respiratory function (SVC)", "setting": "SOD1 ALS patients; FIG. 6B", "value": "slowing of decline in respiratory function"},
      {"measurement": "plasma pNfH levels", "setting": "pNfH and NfL; 100 mg over time vs placebo, FIG. 7A", "value": "reduction"},
      {"measurement": "plasma NfL levels", "setting": "pNfH and NfL; 100 mg over time vs placebo, FIG. 7B", "value": "reduction"},
      {"measurement": "CSF NfL levels", "setting": "pNfH and NfL; 100 mg over time vs placebo, FIG. 7D", "value": "reduction"},
      {"measurement": "CSF pNfH levels", "setting": "pNfH and NfL; 100 mg vs placebo, overall", "value": "Lowering of CSF pNfH; also recorded: reduction"},
      {"measurement": "CSF pNfH levels", "setting": "pNfH and NfL; patients with fast-progressing SOD1 mutations, vs placebo", "value": "reduction in CSF pNfH levels"}
    ]},
    {"compound": "CCGTCGCCCTTCAGCACGCA (antisense e[5mC]*e[5mC]*eG*eT*e[5mC]*dG*d[5mC]*d[5mC]*d[5mC]*dT*dT*d[5mC]*dA*dG*d[5mC]*eA*e[5mC]*eG*e[5mC]*eA) [compound 333611, reference compound]", "values": [
      {"measurement": "onset of weight loss, median", "setting": "SOD1^G93A rats", "value": 139, "unit": "days"}
    ]},
    {"compound": "CCoToAoTAGGACTATCCAoGoGoAA (antisense CCTATAGGACTATCCAGGAA; chemically modified at marked places, type not given here) [Inactive ASO (in vivo), reference compound]", "values": [
      {"measurement": "compound muscle action potential (CMAP)", "setting": "SOD1^G93A mice [3]", "value": "reduced by more than half"},
      {"measurement": "denervation of muscle endplates", "setting": "SOD1^G93A mice [3]; tibialis anterior, FIG. 3", "value": "more than 75%"}
    ]},
    {"compound": "TToAoATGTTTATCAoGoGAT (antisense eT*eTeAeA*dT*dG*dT*dT*dT*dA*dT*d[5mC]*kAkGeG*eA*eT) [ASO2]", "values": [
      {"measurement": "SOD1 mRNA", "setting": "SOD1 mRNA", "value": "potently lowered SOD1 mRNA in a dose-dependent manner"},
      {"measurement": "maintained weight, days longer than aCSF", "setting": "SOD1^G93A rats", "value": 67, "unit": "days"}
    ]}
  ]
}
